Measurements as given in PubChem BioAssay (NCI).
Where “and” joins values, the source holds several entries; their conditions need not be identical. Equal entries are not always repeated.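 In this assay, cells in 96-well plates receive the compound at five concentrations for 48 hours. Endpoints are linearly interpolated between the surrounding concentrations. GI50 marks 50% less growth. At the TGI there is no net growth.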

Tests used:
Test in all cases: NCI anticancer screen, dose series, 48 h
U251 CNS = test system: U251 CNS
SK-OV-3 ovarian = test system: SK-OV-3 ovarian
HCT-15 colon = test system: HCT-15 colon
HS 578T breast = test system: HS 578T breast
SK-MEL-5 melanoma = test system: SK-MEL-5 melanoma
786-0 renal = test system: 786-0 renal
SR leukemia = test system: SR leukemia
KM12 colon = test system: KM12 colon
OVCAR-5 ovarian = test system: OVCAR-5 ovarian
TK-10 renal = test system: TK-10 renal
PC-3 prostate = test system: PC-3 prostate
K-562 leukemia = test system: K-562 leukemia

| SMILES | TGI (U251 CNS) [µM] | TGI (SK-OV-3 ovarian) [µM] | TGI (HCT-15 colon) | TGI (HS 578T breast) [µM] | TGI (SK-MEL-5 melanoma) | TGI (786-0 renal) [µM] | TGI (SR leukemia) [µM] | TGI (KM12 colon) [µM] | TGI (OVCAR-5 ovarian) [µM] | TGI (TK-10 renal) [µM] | TGI (PC-3 prostate) [µM] | TGI (K-562 leukemia) [µM] | GI50 (HCT-15 colon) | GI50 (KM12 colon) | GI50 (K-562 leukemia) |
| --- | --- | --- | --- | --- | --- | --- | --- | --- | --- | --- | --- | --- | --- | --- | --- |
| CCOC(=O)c1nc2cc(F)c(F)cc2nc1NCc1cc(OC)c(OC)c(OC)c1 | > 100 | > 100 | > 100 µM | > 100 | > 100 µM | > 100 | > 100 | > 100 | > 100 | > 100 | > 100 | – | – | – | – |
| CCOC(=O)N(C)CCC1CC=CC(=O)C1c1cccc(OC)c1OC (stereo not given) | 43 | > 100 | 31.1 µM | > 100 | 22 µM | 45.7 | 67.1 | 33.6 | 46.7 | 65.3 | > 100 | > 100 | – | – | – |
| c1ccc2nc3c(nc2c1)sc1nc2ccccc2n13 | > 100 | > 100 | > 100 µM | > 100 | > 100 µM | > 100 | > 100 | > 100 | > 100 | > 100 | > 100 | > 100 | – | – | – |
| CCOC(=O)C(C)c1nc2cc(F)c(N3CCOCC3)cc2[nH]c1=O (stereo not given) | > 100 | > 100 | > 100 µM | > 100 | > 100 µM | > 100 | > 100 | > 100 | > 100 | > 100 | > 100 | > 100 | – | – | – |
| COc1ccc2c(c1OC)C(Br)CCC(Br)(Br)C2=O (stereo not given) | 30.4 | 31.2 | 25.6 µM | 44.2 | 14.7 µM | 15.3 | 4.22 | 32.2 | 31.8 | 19.4 | 24.2 | 11.6 | – | – | – |
| COc1ccc(OC)c2sc(N3C(=O)/C(=C/c4ccc(N(C)C)cc4)N=C3c3ccccc3)nc12 | > 100 | > 100 | > 100 µM | > 100 | > 100 µM | > 100 | 74.6 | > 100 | > 100 | > 100 | 81.2 | > 100 | – | – | – |
| CC1(C)C2CC1C(/C=N\OCC(=O)O)=CC2=O (stereo not given) | > 100 | > 100 | > 100 µM | > 100 | > 100 µM | > 100 | > 100 | > 100 | > 100 | > 100 | > 100 | > 100 | – | – | – |
| NS(=O)(=O)c1ccc(NC(=S)/N=C/c2c(O)c3ccccc3[nH]c2=O)cc1 | > 100 | > 100 | > 100 µM | > 100 | > 100 µM | > 100 | > 100 | > 100 | > 100 | > 100 | > 100 | > 100 | – | – | – |
| COC(=O)CC(SCCO)SCCO | – | > 100 | – | > 100 | > 100 µM | > 100 | > 100 | > 100 | > 100 | > 100 | > 100 | > 100 | – | – | – |
| Clc1ccccc1-c1nn2c(CCCCCCCCc3nnc4sc(-c5ccccc5Cl)nn34)nnc2s1 | > 100 | > 100 | > 100 µM | > 100 | > 100 µM | > 100 | > 100 | > 100 | > 100 | > 100 | > 100 | > 100 | – | – | – |
| COC(=O)/N=[N+](\[O-])C(c1ccc(Cl)cc1)c1ccc(Cl)cc1 | > 100 | > 100 | > 100 µM | > 100 | 78.6 µM | 96.5 | > 100 | > 100 | > 100 | > 100 | > 100 | > 100 | – | – | – |
| CCOC(=O)Nn1cnnc1Cc1ccccc1 | > 100 | > 100 | > 100 µM | 81.4 | > 100 µM | > 100 | > 100 | > 100 | > 100 | > 100 | > 100 | > 100 | – | – | – |
| O=C1c2scc(-c3ccc(F)cc3)c2-n2cccc21 | 51.9 | > 100 | > 100 µM | > 100 | > 100 µM | 68.6 | 44 | > 100 | > 100 | > 100 | > 100 | – | – | – | – |
| CCOC(=O)CCN1C(=O)c2ccc(NC(=O)C(=O)O)cc2S1(=O)=O | > 100 | > 100 | > 100 µM | > 100 | > 100 µM | > 100 | > 100 | > 100 | > 100 | > 100 | > 100 | > 100 | – | – | – |
| N#Cc1c(-c2cccc(Br)c2)cc(-c2ccc(Cl)cc2)nc1N | 32.8 | 56.6 | 30 µM | 43.1 | 30.7 µM | 42.4 | 46.3 | 60.4 | 65.2 | 45.2 | 71.3 | 81.9 | – | – | – |
| Cc1cccc(/C=N/NC(=S)NC2CCCCC2)n1 | > 87.8 | > 100 | > 100 µM | > 100 | > 100 µM | 98.3 | > 78.3 | > 100 | > 100 | > 100 | > 100 | > 54.7 | – | – | – |
| COC(=O)C1C(O)C(C)C(O)C(C)/C=C\C=C(C)C(=O)Nc2c(C)c(OC(C)=O)c3c(c2O)C(=O)C(C)=C2OCOC(=C23)C(C)=CC(C)(O)C(O)C(C)C1O (stereo not given) | > 100 | > 100 | 50.8 µM and > 100 µM | > 100 | 74.5 µM and > 100 µM | > 100 | > 100 | > 100 | > 100 | > 100 | > 100 | > 100 | 19.4 µM and > 100 µM | 25.1 µM and > 100 µM | 28.3 µM and > 100 µM |
| COc1ccc(/C=C/C(=O)c2cccc(C(=O)/C=C/c3ccc(OC)c(OC)c3)n2)cc1OC | > 55.7 | > 100 | 55 µM | > 95.5 | > 100 µM | 27.5 | > 25.9 | > 100 | > 91.2 | > 100 | > 100 | > 100 | – | – | – |
